Reference: patent publication US9221800B2, “Isoxazole treatments for diabetes” (The Board of Regents of the University of Texas System, priority 2011, dated 2015)

Experiments:
Format in all cases: cell-based, mouse
MIN6 cells = test: Immunoblotting of MIN6 whole cell lysates; conditions: MIN6 pretreated with inhibitors 16 h (FIG. 4A); nifedipine in combination with the chelating agent BAPTA
Experimental: FIGS. 2[…]-1) activates insulin expression and improves β cell function in MIN6 cells. (FIG. 2A) Dose-response relationship of MIN6 cells treated with 5-80 μM Isx for 24 h or DMSO (0.08%-similar to the highest concentration of Isx). Whole cell lysates (40 μg) were subjected to immunoblotting using antibodies against BETA2NeuroD1, MafA, PDX-1, pERK1/2 (pT183/[…]), acetylated histones […] and ACH3K9 and total histone H3. (FIG. 2B) Quantitative RT-PCR of murine insulin1 and insulin2 gene expression in MIN6 cells treated with Isx for 24 h as in FIG. 2A. […] (FIG. 2D) Insulin content measured by ELISA in MIN6 cells treated with Isx for 24 or 48 h. (FIG. 2E) GSIS induced by glucose, amino acids (AA) and Exendin-4 (Ex-4) singly or in combination in MIN6 cells pretreated with Isx for 48 h. FIGS. 4[…]-1) is a HAT activator. (FIG. 4A) Immunoblots of acetylated histones in MIN6 cells pretreated with the indicated inhibitors for 16 h and then treated with vehicle or Isx. (FIGS. 4B-C) HDAC (FIG. 4B) and HAT (FIG. 4C) activities in 50 μg of nuclear extract protein from MIN6 cells treated with Isx or DMSO for 24 h. Trichostatin A (TSA; 2 μM) was added at as a positive control. HeLa nuclear extract also was included as a positive control. […] Statistical analysis was performed using Student's t test as in FIGS. 1A-E. *P<0.05; **P<0.01. (FIG. 4G) Simplified view of the actions of Isx. FIG. 6. Time course of […]-1) treatment in MIN6 cells. Immunoblotting of whole cell extracts from MIN6 cells grown for 24 h in complete DMEM containing […] and treated with 20 μM Isx for from 15 min to 24 h. The control (0 min) was treated with DMSO for 24 h. MIN6 cells were cultured in DMEM (Gibco), containing 25 mM glucose, 10% fetal bovine serum, 10 mM Hepes pH 7.4, 10.2 mM L-glutamine, […] sodium pyruvate, 2.5 mM β-mercaptoethanol, 100 U/ml penicillin and 100 μg/ml streptomycin at 37° C. in 10% CO2. Human islets were obtained from the ICR Basic Science Islet Distribution and from the University of Alabama, Birmingham Islet Resource Facility and were cultured in RPMI 1640 with 11 mM glucose for up to 1 year. The medium was changed twice weekly and the islets were subcultured when they reached 90% confluence. For Isx treatments, cells were incubated in medium containing either Isx or the equivalent volume of DMSO vehicle (0.04%). To measure GSIS, cells were placed in Krebs-Ringer bicarbonate/Hepes containing 0.1% bovine serum albumin and 2 mM glucose for 2 h, and stimulated for 15 min with 20 mM glucose, a 1× amino-acid mixture (concentrations as in DMEM), or 50 nM Exendin-4.

HDAC = HDAC activity in nuclear extracts of treated MIN6 cells; conditions: 24 h treatment, TSA 2 μM positive control (FIG. 4B)
Experimental: (§1) The histone acetyl transferase and deacetylase activities were measured in 50 μg of nuclear protein using the HAT and HDAC activity colorimetric assay kits from Biovision Biotechnology according to manufacturer's recommendations.

HAT = HAT activity in nuclear extracts of treated MIN6 cells; conditions: MIN6 cells expressing p300; 10 μM U0126
Experimental: as §1

| Compound | effect on Isx-induced acetylation of H4 (MIN6 cells) | effect on acetylation of H3 on lysines 9 and 14 induced by Isx (MIN6 cells) | HDAC activity in MIN6 cells (HDAC) | effect on the Isx-induced increase in HAT activity (HAT) |
| --- | --- | --- | --- | --- |
| COC[C@H]1OC(=O)c2coc3c2[C@@]1(C)C1=C(C3=O)[C@@H]2CCC(=O)[C@@]2(C)C[C@H]1OC(C)=O [wortmannin, reference compound] | no effect | no effect |  |  |
| trichostatin A [reference compound] |  |  | inhibited |  |
| O=C(NOC[C@H](O)CO)c1ccc(F)c(F)c1Nc1ccc(I)cc1F [PD325901, reference compound] | inhibited | little effect |  |  |
| N#CC(=C(/N)Sc1ccccc1N)/C(C#N)=C(\N)Sc1ccccc1N [U0126, reference compound] | inhibited | little effect |  | inhibited |
